The text below walks through data of US7279470B2 (priority 2001, dated 2007).

Assay [1] addresses T1, Hormone-sensitive lipase (HSL) (Homo sapiens, UniProt Q05469).
T1 sequence (Q05469 1-1076): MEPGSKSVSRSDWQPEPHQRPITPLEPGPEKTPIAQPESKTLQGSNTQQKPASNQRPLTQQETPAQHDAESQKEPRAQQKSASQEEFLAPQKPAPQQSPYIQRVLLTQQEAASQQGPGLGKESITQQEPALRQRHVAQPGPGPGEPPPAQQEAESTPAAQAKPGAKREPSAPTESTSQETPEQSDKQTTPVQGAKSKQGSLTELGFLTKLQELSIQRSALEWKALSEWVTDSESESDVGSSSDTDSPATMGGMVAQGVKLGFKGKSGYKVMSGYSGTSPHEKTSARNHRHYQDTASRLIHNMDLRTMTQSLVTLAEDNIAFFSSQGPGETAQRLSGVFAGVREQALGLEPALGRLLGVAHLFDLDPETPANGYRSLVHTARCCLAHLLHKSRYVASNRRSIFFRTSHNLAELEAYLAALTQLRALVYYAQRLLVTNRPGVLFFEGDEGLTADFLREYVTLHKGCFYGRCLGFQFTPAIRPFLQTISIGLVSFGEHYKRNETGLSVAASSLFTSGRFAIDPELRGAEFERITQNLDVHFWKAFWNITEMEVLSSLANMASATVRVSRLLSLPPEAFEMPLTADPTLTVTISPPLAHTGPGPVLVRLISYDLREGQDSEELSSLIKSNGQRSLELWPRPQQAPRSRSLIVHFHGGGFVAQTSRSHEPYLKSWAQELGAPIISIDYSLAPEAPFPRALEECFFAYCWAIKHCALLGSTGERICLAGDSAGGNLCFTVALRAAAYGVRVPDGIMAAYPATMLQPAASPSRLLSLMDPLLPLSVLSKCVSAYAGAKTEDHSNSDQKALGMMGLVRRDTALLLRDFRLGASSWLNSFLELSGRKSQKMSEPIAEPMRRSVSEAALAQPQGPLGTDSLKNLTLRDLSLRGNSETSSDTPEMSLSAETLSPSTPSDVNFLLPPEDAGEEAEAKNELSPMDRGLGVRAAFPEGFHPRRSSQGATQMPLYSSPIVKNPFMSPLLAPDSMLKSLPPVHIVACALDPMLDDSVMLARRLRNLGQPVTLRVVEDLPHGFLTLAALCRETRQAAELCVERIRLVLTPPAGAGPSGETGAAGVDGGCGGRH
In kind it is biochemical. The conditions noted are these: 10 μM sample concentration; percent activity relative to a non-inhibited sample (no compound); 30 min preincubation 25° C., 120 min at 37° C. The method, then: Materials. The Hormone-sensitive lipase was provided by Dr. Cecilia Holm, from Lund University Sweden or produced and purified by Novo Nordisk (NN) using the reagents and protocols used by Dr. Holm. […] All other reagents are of commercial grade and obtained from various commercial sources.
BSA is added as product receptor. The transfer of the fluorochrome from the lipid phase to the water (BSA) phase changes the fluorescent properties of the fluorochrome. The changes can be monitored on a fluorimeter with an excitation wavelength of 450 nm and an emission wavelength of 545 nm.
Compound and HSL (20 μL compound, 10 μL enzyme and 70 μL PED-BSA buffer) is preincubated for 30 min at 25° C. before addition of substrate (100 μL). Amount of formed product is measured after 120 min incubation at 37° C.

Assay [2] concerns the target T1, Hormone-sensitive lipase (HSL). Type of assay: biochemical. The conditions noted are these: 10 μM concentration; percent activity relative to an un-inhibited sample (no compound); 3H-Triolein substrate, 25° C. The text has this:
Materials. The Hormone-sensitive lipase was provided by Dr. Cecilia Holm, from Lund University Sweden or produced and purified by Novo Nordisk (NN) using the reagents and protocols used by Dr. Holm. The substrates used are: ^3H-labeled triolein (TO) from Amersham, Buckinghamshire, U.K. cat No. TRA191; 5-20 Ci/mmol dissolved in toluene, triolein (Sigma, Cat. No. T-1740), fluorochrome-labeled triacylglyceride (cis-octadec-9-enoic acid 2-[12-(7-nitrobenzo[12,5]oxadiazol-4-ylamino)dodecanoyloxy]-1-cis-octadec-9-enoyloxymethyl-ethyl ester) prepared by Novo Nordisk (NN) by conventional methods, and 1,3-(di[^3H]-stearin), 2-(PEG-Biotin)glycerol prepared in collaboration with Amersham Pharmacia Biotech, UK and described in WO 01/073442. Phosphatidyl choline (PC) and phosphatidyl inositol (PI) are from Sigma (St Luis MO cat. Nos. P-3556 and P-5954 respectively). All other reagents are of commercial grade and obtained from various commercial sources.
3180.2: Assay for determination of percent inhibition by compound at 10 μM concentration. A lipid emulsion with ^3H-Triolein and phospholipid is used as substrate with a standard cencentration of highly purified HSL. BSA is added as product receptor. The substrate is prepared as follows: […]

Regarding `CN(C(=O)Oc1ccc(OC(F)(F)C(F)(F)F)cc1)c1ccccc1` [Example 20], in assay [1], the “Test 3190.1 HSL_FL % ACTIVITY All” value came out at 51%. Regarding `O=C(Oc1ccc(Oc2ccc3c(C(F)(F)F)cc(C(F)(F)F)nc3n2)cc1)N1CCOCC1` [Example 90, Morpholine-4-carboxylic acid 4-(5,7-bis-trifluoromethyl-[1,8]naphthypyridin-2-yloxy)-phenyl ester], the “Test 3190.1 HSL_FL % ACTIVITY All” value in assay [1] was determined as 24%. `Cc1c(Cc2ccccc2)c(=O)oc2cc(OC(=O)N3CCOCC3)ccc12` [Example 92]: in assay [2], the “Test 3180.2 HSL % ACTIVITY All” value is 62%. In the case of “N-Methyl-N-phenethyl-5-ethyl-3-(4-chlorophenyl)-[1,2,4]triazole-1-carboxamide [Example 119]”, the “Test 3180.2 HSL % ACTIVITY All” value in assay [2] came to 10%.
